Experimental data taken from ChEMBL document CHEMBL4417631, “Oral peptide inhibitors of interleukin-23 receptor and their use to treat inflammatory bowel diseases” (2017).
Where a SMILES comes first, the peptide text is derived from it.

Biological target: T1, Interleukin-23 receptor (Homo sapiens, UniProt Q5VWK5)
T1 sequence (Q5VWK5 whole entry): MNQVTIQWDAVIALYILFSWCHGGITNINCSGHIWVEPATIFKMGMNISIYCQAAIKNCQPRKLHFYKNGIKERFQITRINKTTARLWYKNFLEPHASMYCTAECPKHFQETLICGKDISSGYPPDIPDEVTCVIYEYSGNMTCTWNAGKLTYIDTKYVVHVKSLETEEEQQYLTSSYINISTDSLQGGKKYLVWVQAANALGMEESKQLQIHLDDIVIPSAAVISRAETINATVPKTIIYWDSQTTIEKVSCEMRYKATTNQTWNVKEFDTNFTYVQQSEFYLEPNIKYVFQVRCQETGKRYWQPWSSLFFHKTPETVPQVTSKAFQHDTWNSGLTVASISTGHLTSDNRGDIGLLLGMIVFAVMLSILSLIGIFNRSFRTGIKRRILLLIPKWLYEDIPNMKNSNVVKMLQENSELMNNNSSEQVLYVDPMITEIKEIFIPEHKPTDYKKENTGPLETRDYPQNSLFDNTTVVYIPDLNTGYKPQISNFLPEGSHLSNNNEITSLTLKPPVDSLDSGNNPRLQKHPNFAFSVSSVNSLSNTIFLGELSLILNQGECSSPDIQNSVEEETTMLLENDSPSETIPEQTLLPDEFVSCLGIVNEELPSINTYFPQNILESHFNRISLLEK
Assay: Inhibition of interleukin-23 binding to human interleukin-23 receptor incubated for 2 hrs by competitive binding ELISA

Row | Compound | IC50 [µM]
1 | CC(=O)N[C@@H](CS)C(=O)N[C@@H](CCC(N)=O)C(=O)N[C@H](C(=O)N[C@@H](Cc1c[nH]c2ccccc12)C(=O)N[C@@H](CCC(N)=O)C(=O)N[C@@H](CS)C(=O)N(C)[C@@H](Cc1ccc(O)cc1)C(=O)N[C@@H](Cc1c[nH]c2ccccc12)C(=O)N[C@@H](CCC(C)C)C(=O)N[C@@H](CCC(=O)O)C(=O)N[C@@H](CC(N)=O)C(=O)NCC(N)=O)[C@@H](C)O | > 30
2 | CC(=O)N[C@@H](CS)C(=O)N[C@@H](CCC(N)=O)C(=O)N[C@H](C(=O)N[C@@H](Cc1c[nH]c2ccccc12)C(=O)N[C@@H](CCC(N)=O)C(=O)N[C@@H](CS)C(=O)N[C@@H](Cc1ccc(O)cc1)C(=O)N[C@@](C)(Cc1ccccc1)C(=O)N[C@@H](CCC(C)C)C(=O)N[C@@H](CCC(=O)O)C(=O)N[C@@H](CC(N)=O)C(=O)NCC(N)=O)[C@@H](C)O | 30
3 | CC(=O)N[C@H](CCCCN)C(=O)N[C@@H](CS)C(=O)N[C@@H](C)C(=O)N[C@@H](CC(=O)O)C(=O)N[C@@H](Cc1c[nH]c2ccccc12)C(=O)N[C@H](C(=O)N[C@@H](CS)C(=O)N[C@@H](Cc1ccc(O)cc1)C(=O)N[C@@H](Cc1c[nH]c2ccccc12)C(=O)N[C@@H](Cc1cnc[nH]1)C(=O)N[C@H](C(=O)N[C@@H](Cc1ccccc1)C(=O)NCC(=O)O)[C@@H](C)O)C(C)C | > 1
4 | CC(=O)N[C@@H](CS)C(=O)N[C@@H](C)C(=O)N[C@@H](CC(=O)O)C(=O)N[C@@H](Cc1c[nH]c2ccccc12)C(=O)N[C@H](C(=O)N[C@@H](CS)C(=O)N[C@@H](Cc1ccc(O)cc1)C(=O)N[C@@H](Cc1cccc2ccccc12)C(=O)N[C@@H](Cc1cnc[nH]1)C(=O)N[C@H](C(=O)N[C@@H](Cc1ccccc1)C(=O)NC(C)(C)C(N)=O)[C@@H](C)O)C(C)C | > 1
5 | CC(=O)N[C@@H](C)C(=O)N[C@H](C(=O)N[C@@H](CC(=O)O)C(=O)N[C@@H](Cc1c[nH]c2ccccc12)C(=O)N[C@H](C(=O)N[C@H](C(=O)N[C@@H](Cc1ccc(O)cc1)C(=O)N[C@@H](Cc1c[nH]c2ccccc12)C(=O)N[C@@H](CCCNC(=N)N)C(=O)N[C@@H](CCCCN)C(=O)N[C@@H](Cc1ccccc1)C(=O)NCC(=O)NCCOCC(=O)N[C@H](CCCCN)C(N)=O)C(C)(C)S)C(C)C)C(C)(C)S | > 30
6 | CC(=O)N[C@@H](CS)C(=O)N[C@@H](CCC(N)=O)C(=O)N[C@H](C(=O)N[C@@H](Cc1c[nH]c2ccccc12)C(=O)N[C@@H](CCC(N)=O)C(=O)N[C@@H](CS)C(=O)N[C@@H](Cc1ccc(O)cc1)C(=O)N[C@@H](Cc1c[nH]c2ccccc12)C(=O)N1CCC[C@H]1C(=O)N[C@@H](CCC(=O)O)C(=O)N[C@@H](CC(N)=O)C(=O)NCC(N)=O)[C@@H](C)O | > 30
7 | CC(=O)N[C@@H](CS)C(=O)N[C@@H](C)C(=O)N[C@@H](CC(=O)O)C(=O)N[C@@H](Cc1c[nH]c2ccccc12)C(=O)N[C@H](C(=O)N[C@@H](CS)C(=O)N[C@@H](Cc1ccc(O)cc1)C(=O)N[C@@H](Cc1cccc2ccccc12)C(=O)N[C@@H](Cc1ccccc1)C(=O)N[C@H](C(=O)N[C@@H](Cc1ccccc1)C(=O)NCC(N)=O)[C@@H](C)O)C(C)C | > 1
8 | CC(=O)N[C@@H](CS)C(=O)N[C@@H](C)C(=O)N[C@@H](CC(=O)O)C(=O)N[C@@H](Cc1c[nH]c2ccccc12)C(=O)N[C@H](C(=O)N[C@@H](CS)C(=O)N[C@@H](Cc1ccc(O)cc1)C(=O)N[C@H](C(=O)N[C@@H](CCCN)C(=O)N[C@@H](CN)C(=O)N[C@@H](Cc1ccccc1)C(=O)NCC(=O)NCCOCC(=O)N[C@H](CCCCN)C(N)=O)C1CCC(c2ccccc2)CC1)C(C)C (stereo not given in full) | > 3
9 | C[C@H](N)C(=O)N[C@@H](CS)C(=O)N[C@@H](CC(=O)O)C(=O)N[C@@H](Cc1c[nH]c2ccccc12)C(=O)N[C@@H](CS)C(=O)N[C@@H](CS)C(=O)N[C@@H](Cc1ccc(O)cc1)C(=O)N[C@@H](Cc1c[nH]c2ccccc12)C(=O)N[C@@H](CS)C(=O)N[C@H](C(=O)N[C@@H](Cc1ccccc1)C(=O)NCC(N)=O)[C@@H](C)O (H-ACDWCCYWCTFG-NH2) | > 1
10 | CC(=O)N[C@H](CCCCNC(=O)COCC(=O)NCCCC[C@@H](NC(C)=O)C(=O)N[C@@H](CS)C(=O)N[C@@H](C)C(=O)N[C@@H](CC(=O)O)C(=O)N[C@@H](Cc1c[nH]c2ccccc12)C(=O)N[C@H](C(=O)N[C@@H](CS)C(=O)N[C@@H](Cc1ccc(O)cc1)C(=O)N[C@@H](Cc1c[nH]c2ccccc12)C(=O)N[C@@H](Cc1cnc[nH]1)C(=O)N[C@H](C(=O)N[C@@H](Cc1ccccc1)C(=O)NCC(=O)O)[C@@H](C)O)C(C)C)C(=O)N[C@@H](CS)C(=O)N[C@@H](C)C(=O)N[C@@H](CC(=O)O)C(=O)N[C@@H](Cc1c[nH]c2ccccc12)C(=O)N[C@H](C(=O)N[C@@H](CS)C(=O)N[C@@H](Cc1ccc(O)cc1)C(=O)N[C@@H](Cc1c[nH]c2ccccc12)C(=O)N[C@@H](Cc1cnc[nH]1)C(=O)N[C@H](C(=O)N[C@@H](Cc1ccccc1)C(=O)NCC(=O)O)[C@@H](C)O)C(C)C | > 10

Other lines, results leading:

Row | IC50 [µM] | Compound
11 | < 0.5 | CC(=O)N[C@@H](CS)C(=O)N[C@@H](CCC(N)=O)C(=O)N[C@H](C(=O)N[C@@H](Cc1c[nH]c2ccccc12)C(=O)N[C@@H](CCC(N)=O)C(=O)N[C@@H](CS)C(=O)N[C@@H](Cc1ccc(O)cc1)C(=O)N[C@@H](Cc1c[nH]c2ccccc12)C(=O)N[C@@H](CCCNC(=N)N)C(=O)N[C@H](C(=O)N[C@@H](CC(N)=O)C(=O)NCC(=O)NCCOCC(=O)N[C@H](CCCCN)C(N)=O)[C@@H](C)O)[C@@H](C)O
12 | 6 | CC(=O)N[C@@H](CS)C(=O)N[C@@H](C)C(=O)N[C@@H](CC(=O)O)C(=O)N[C@@H](Cc1c[nH]c2ccccc12)C(=O)N[C@H](C(=O)N[C@@H](CS)C(=O)N[C@@H](Cc1ccc(O)cc1)C(=O)N[C@@H](Cc1c[nH]c2ccccc12)C(=O)N[C@@H](CCCN)C(=O)N[C@@](C)(CC(C)C)C(=O)N[C@@H](Cc1ccccc1)C(=O)NCC(=O)NCCOCC(=O)N[C@H](CCCCN)C(N)=O)C(C)C
13 | 6 | CC(=O)N[C@@H](CS)C(=O)N[C@@H](CCC(N)=O)C(=O)N[C@H](C(=O)N[C@@H](Cc1c[nH]c2ccccc12)C(=O)N[C@@H](CCC(N)=O)C(=O)N[C@@H](CS)C(=O)N[C@@H](Cc1cnc[nH]1)C(=O)N[C@@H](Cc1c[nH]c2ccccc12)C(=O)N[C@@H](CCC(C)C)C(=O)N[C@@H](CCC(=O)O)C(=O)N[C@@H](CC(N)=O)C(=O)NCC(N)=O)[C@@H](C)O
14 | < 0.5 | CC(=O)N[C@@H](CS)C(=O)N[C@@H](CCC(N)=O)C(=O)N[C@H](C(=O)N[C@@H](Cc1c[nH]c2ccccc12)C(=O)N[C@@H](CCC(N)=O)C(=O)N[C@@H](CS)C(=O)N[C@@H](Cc1ccc(O)cc1)C(=O)N[C@@H](Cc1c[nH]c2ccccc12)C(=O)N[C@@H](CCONC(=N)N)C(=O)N[C@@H](CCC(=O)O)C(=O)N[C@@H](CC(N)=O)C(=O)NCC(=O)NCCOCC(=O)N[C@H](CCCCN)C(N)=O)[C@@H](C)O
15 | < 0.5 | CC(=O)N[C@@H](CS)C(=O)N[C@@H](CCC(N)=O)C(=O)N[C@H](C(=O)N[C@@H](Cc1c[nH]c2ccccc12)C(=O)N[C@@H](CCC(N)=O)C(=O)N[C@@H](CS)C(=O)N[C@@H](Cc1ccc(O)cc1)C(=O)N[C@@H](Cc1c[nH]c2ccccc12)C(=O)N[C@@H](CCCNC(=N)N)C(=O)N[C@@H](CCCN)C(=O)N[C@@H](CC(N)=O)C(=O)NCC(=O)NCCOCC(=O)N[C@H](CCCCN)C(N)=O)[C@@H](C)O
16 | < 0.5 | CC(=O)N[C@@H](CS)C(=O)N[C@@H](CCC(N)=O)C(=O)N[C@H](C(=O)N[C@@H](Cc1c[nH]c2ccccc12)C(=O)N[C@@H](CCC(N)=O)C(=O)N[C@@H](CS)C(=O)N[C@@H](Cc1ccc(O)cc1)C(=O)N[C@@H](Cc1c[nH]c2ccccc12)C(=O)N[C@@H](CCCNC(=N)N)C(=O)N[C@@H](CCCCN)C(=O)N[C@@H](CC(N)=O)C(=O)NCC(=O)NCCOCC(=O)N[C@H](CCCCN)C(N)=O)[C@@H](C)O
17 | < 0.5 | CC(=O)N[C@@H](CS)C(=O)N[C@@H](CCC(N)=O)C(=O)N[C@H](C(=O)N[C@@H](Cc1c[nH]c2ccccc12)C(=O)N[C@@H](CCC(N)=O)C(=O)N[C@@H](CS)C(=O)N[C@@H](Cc1ccc(O)cc1)C(=O)N[C@@H](Cc1c[nH]c2ccccc12)C(=O)N[C@@H](CC(C)C)C(=O)N[C@@H](CCC(=O)O)C(=O)N[C@@H](CC(N)=O)C(=O)NCC(N)=O)[C@@H](C)O
18 | 6 | CC(=O)N[C@@H](CS)C(=O)N[C@@H](C)C(=O)N[C@@H](CC(=O)O)C(=O)N[C@@H](Cc1c[nH]c2ccccc12)C(=O)N[C@H](C(=O)N[C@@H](CS)C(=O)N[C@@H](Cc1ccc(O)cc1)C(=O)N[C@@H](Cc1ccc(C(N)=O)cc1)C(=O)N[C@@H](CCCN)C(=O)N[C@@H](CN)C(=O)N[C@@H](Cc1ccccc1)C(=O)NCC(=O)NCCOCC(=O)N[C@H](CCCCN)C(N)=O)C(C)C
19 | < 0.5 | CC(=O)N[C@@H](CS)C(=O)N[C@@H](C)C(=O)N[C@@H](CC(=O)O)C(=O)N[C@@H](Cc1c[nH]c2ccccc12)C(=O)N[C@H](C(=O)N[C@@H](CS)C(=O)N[C@@H](Cc1ccc(O)cc1)C(=O)N[C@@H](Cc1c[nH]c2ccccc12)C(=O)N[C@@H](Cc1cnc[nH]1)C(=O)N[C@H](C(=O)N[C@@H](Cc1ccccc1)C(=O)NCC(=O)N1CCC[C@H]1C(=O)N[C@H](CCCCN)C(=O)O)[C@@H](C)O)C(C)C
20 | 0.097 to 0.239 | CC(=O)N[C@@H](CS)C(=O)N[C@@H](CCC(N)=O)C(=O)N[C@H](C(=O)N[C@@H](Cc1c[nH]c2ccccc12)C(=O)N[C@@H](CCC(N)=O)C(=O)N[C@@H](CS)C(=O)N[C@@H](Cc1ccc(O)cc1)C(=O)N[C@@H](Cc1c[nH]c2ccccc12)C(=O)N[C@@H](CCC(C)C)C(=O)N[C@@H](CCC(=O)O)C(=O)N[C@@H](CC(N)=O)C(=O)NCC(=O)N1CCC[C@H]1C(N)=O)[C@@H](C)O
